Measured values taken from PMC10534581 (Pharmaceutics, 2023).

Experiments:
[1] = postmortem studies and case reports; cited from earlier work
[2] = cited from earlier work
[3] = tested on: patients; design: method as in PMID 19723786, PMID 19934760; details: cited from earlier work
[4] = tested on: children and adolescents; assay: Treatment response on Clinical Global Impression-Improvement (CGI-I); format: in vivo, human
Description: On the day of blood collection, treatment responses were measured using the Clinical Global Impression (CGI) Scale (Improvement, CGI-I), which clinicians were instructed to rate solely based on the effects of the drug. […] This instrument was specifically designed to quantify the severity of 56 signs of adverse events occurring in pediatric patients under treatment with a psychotropic drug. The 56 items were rated on a Likert scale with 'none', 'slight', 'moderate', 'severe', and 'extremely severe' responses. The maximal severity on any of the items was considered in this study. […] Additionally, indications for the TDM measurement, detailed information on concomitant medications, nicotine use, weight, and height were also recorded. […] All statistical analyses were performed using R (R Foundation for Statistical Computing) version 4.1.1. The alpha level for all analyses was set to 0.05. To maximize the comparability of the conclusions from the dataset generated in this study, the main analyses were performed with both the last valid timepoint, as in previous relevant studies, and with all the valid timepoints, as detailed in the next paragraph. […] In addition to the simple linear regressions, multiple linear regressions were performed with four additional hypothesized predictors: age (years), sex (male/female), body weight (kg), and smoking status (yes/no). The variance inflation factor (VIF) was evaluated as a measure of multicollinearity. Both regressions were compared based upon model fit. Second, proportional odds models using the clm (cumulative link models) function in the 'ordinal' R package were fitted to examine the serum concentrations as predictors of clinical effects (measured by CGI-I) and adverse effects (measured by PAERS-maximal severity). […] The analyses were repeated with an extended set of hypothesized predictors. For CGI-I, these were age, sex, psychotropic co-medication (i.e., antipsychotic and antidepressant drug), and diagnostic comorbidity (i.e., a single diagnosis versus multiple diagnoses). For PAERS, the predictors were age, sex, and psychotropic co-medication. The proportional odds assumptions in these statistics were verified with likelihood ratio tests using the nominal_test and scale_test functions, while model convergence was tested with the convergence function. […] The clmm (cumulative link mixed models) function from the 'ordinal' package was used to test the impact of metabolite level on clinical and adverse effects with CGI-I and […] […] The model with multiple predictors included the variables, as in the single timepoint analyses, as well as the data collection time (i.e., days from the baseline timepoint). To determine a possible concentration threshold of efficacy, receiver operating curve (ROC) analyses were performed based on a binary logistic regression, and the optimal cutoff was calculated by finding an optimal trade-off between sensitivity and specificity. […] The last valid datapoints were included in these analyses as deemed most appropriate. Transdiagnostic responders and responders with depression ([…].X and […].X) were considered separately.

[5] = tested on: children and adolescents; assay: Adverse effects on Pediatric Adverse Event Rating Scale (PAERS), maximal severity; format: in vivo, human; details: n = 134 (4 missing); for patients with PAERS max. severity 'none' (no adverse effects): FLX 10–40 mg/day
Description: On the day of blood collection, treatment responses were measured using the Clinical Global Impression (CGI) Scale (Improvement, CGI-I), which clinicians were instructed to rate solely based on the effects of the drug. […] This instrument was specifically designed to quantify the severity of 56 signs of adverse events occurring in pediatric patients under treatment with a psychotropic drug. The 56 items were rated on a Likert scale with 'none', 'slight', 'moderate', 'severe', and 'extremely severe' responses. The maximal severity on any of the items was considered in this study. […] Additionally, indications for the TDM measurement, detailed information on concomitant medications, nicotine use, weight, and height were also recorded. […] All statistical analyses were performed using R (R Foundation for Statistical Computing) version 4.1.1. The alpha level for all analyses was set to 0.05. To maximize the comparability of the conclusions from the dataset generated in this study, the main analyses were performed with both the last valid timepoint, as in previous relevant studies, and with all the valid timepoints, as detailed in the next paragraph. […] As not all the assumptions were met by the original data, a square-root transformation was applied to the outcome variables. In addition to the simple linear regressions, multiple linear regressions were performed with four additional hypothesized predictors: age (years), sex (male/female), body weight (kg), and smoking status (yes/no). The variance inflation factor (VIF) was evaluated as a measure of multicollinearity. Both regressions were compared based upon model fit. Second, proportional odds models using the clm (cumulative link models) function in the 'ordinal' R package were fitted to examine the serum concentrations as predictors of clinical effects (measured by CGI-I) and adverse effects (measured by PAERS-maximal severity). As there was only a single 'very severe' PAERS response, 'very severe' and 'severe' responses were pooled together. The analyses were repeated with an extended set of hypothesized predictors. For CGI-I, these were age, sex, psychotropic co-medication (i.e., antipsychotic and antidepressant drug), and diagnostic comorbidity (i.e., a single diagnosis versus multiple diagnoses). For PAERS, the predictors were age, sex, and psychotropic co-medication. The proportional odds assumptions in these statistics were verified with likelihood ratio tests using the nominal_test and scale_test functions, while model convergence was tested with the convergence function. […] The clmm (cumulative link mixed models) function from the 'ordinal' package was used to test the impact of metabolite level on clinical and adverse effects with CGI-I and […] […]

[6] = Steady-state trough serum concentration (TDM, HPLC with UV detection); format: in vivo, human; details: for Est. of Dose on square-root serum concentration, multiple linear regression / Est. of Body weight on square-root serum concentration, multiple linear regression: Model 1, last datapoint, sex, smoking; for Est. of Dose on square-root serum concentration, multiple linear regression: covariates age, body weight; for Est. of Body weight on square-root serum concentration, multiple linear regression: covariates dose, age; for Est. of Body weight on square-root serum concentration, linear mixed effect model / Est. of Dose on square-root serum concentration, linear mixed effect model: Model 2, all datapoints, multiple predictors incl. time; for β of daily dose on square-root serum concentration, linear mixed-effect model: all datapoints, dose as only fixed predictor; for steady-state serum concentration, range / mean steady-state serum concentration, mean (SD): children and adolescents n = 138, last datapoint; for steady-state serum concentration, range: FLX 10–40 mg/day; for mean steady-state serum concentration, mean (SD): FLX 10–40 mg/day (mean 19.93 mg); for β of daily dose (mg) on square-root serum concentration, simple linear regression: last datapoints
Description: The study spanned three different routine healthcare settings, including inpatient, outpatient, and day-treatment units. […] All dosing steps were recorded along with corresponding dates in the medication protocol. […] Depending on the clinical course, additional visit times were possible.
TDM analysis was conducted according to the guidelines of the Working Group on Neuropsychopharmacology and Pharmacopsychiatry (AGNP) consensus. Blood samples were collected from cubital veins into 7.5-mL monovettes without any additives or anticoagulants at a steady-state trough level. The samples were immediately analyzed (in the case of samples from Wuerzburg, Germany) or analyzed after being received by the TDM laboratory in Wuerzburg, Germany, shipped by regular mail. […] Each analytical series included internal quality control samples, and external control samples were analyzed quarterly. The laboratory responsible for the analysis is certified by a quality control program (https://www.instand-ev.de, accessed on 2 July 2023; https://www.ukw.de/psychiatrie/zuweisende-kolleginnen-und-kollegen/tdm-labor/zertifikate/, accessed on 2 July 2023). Analytical grade chemicals and solvents were procured from Sigma-Aldrich Chemie GmbH (Taufkirchen, Germany).
All statistical analyses were performed using R (R Foundation for Statistical Computing) version 4.1.1. The alpha level for all analyses was set to 0.05. To maximize the comparability of the conclusions from the dataset generated in this study, the main analyses were performed with both the last valid timepoint, as in previous relevant studies, and with all the valid timepoints, as detailed in the next paragraph. […] The model assumptions were verified by means of the semi-automated diagnostic functions in the ‘gvlma’ (Global Validation of Linear Models Assumptions) R package, including evaluation of global statistics, skewness, kurtosis, link function, and heteroscedasticity parameters and inspection of the related plots. […] In addition to the simple linear regressions, multiple linear regressions were performed with four additional hypothesized predictors: age (years), sex (male/female), body weight (kg), and smoking status (yes/no). The variance inflation factor (VIF) was evaluated as a measure of multicollinearity. Both regressions were compared based upon model fit. Second, proportional odds models using the clm (cumulative link models) function in the ‘ordinal’ R package were fitted to examine the serum concentrations as predictors of clinical effects (measured by CGI-I) and adverse effects (measured by PAERS—maximal severity). […] The analyses were repeated with an extended set of hypothesized predictors. For CGI-I, these were age, sex, psychotropic co-medication (i.e., antipsychotic and antidepressant drug), and diagnostic comorbidity (i.e., a single diagnosis versus multiple diagnoses). For PAERS, the predictors were age, sex, and psychotropic co-medication. The proportional odds assumptions in these statistics were verified with likelihood ratio tests using the nominal_test and scale_test functions, while model convergence was tested with the convergence function.
The model with multiple predictors included the variables, as in the single timepoint analyses, as well as the data collection time (i.e., days from the baseline timepoint).
To determine a possible concentration threshold of efficacy, receiver operating curve (ROC) analyses were performed based on a binary logistic regression, and the optimal cutoff was calculated by finding an optimal trade-off between sensitivity and specificity.

[7] = tested on: CYP2D6; details: cited from earlier work
[8] = Responders Transdiagnostic n = 64
[9] = Responders with Depression n = 44

Structure (SMILES) | half-life [2] | Est. of Dose on square-root serum concentration, multiple linear regression [6] | Est. of Body weight on square-root serum concentration, multiple linear regression [6] | Est. of Body weight on square-root serum concentration, linear mixed effect model [6] | Est. of Dose on square-root serum concentration, linear mixed effect model [6] | serum concentration of responders, M+1SD (mean plus 1 standard deviation) [6, 8] | serum concentration of responders, M-1SD (mean minus 1 standard deviation) [6, 8] | serum concentration of responders, Q1 (first interquartile) [6, 8] | serum concentration of responders, Q3 (third interquartile) [6, 8] | serum concentration of responders, M+1SD (mean plus 1 standard deviation) [6, 9] | serum concentration of responders, M-1SD (mean minus 1 standard deviation) [6, 9] | serum concentration of responders, Q1 (first interquartile) [6, 9] | serum concentration of responders, Q3 (third interquartile) [6, 9] | β of daily dose on square-root serum concentration, linear mixed-effect model [6] | steady-state serum concentration, range [6] | mean steady-state serum concentration, mean (SD) [6] | β of daily dose (mg) on square-root serum concentration, simple linear regression [6] | binding affinity to CYP2D6 [7] | also measured
CNCCC(Oc1ccc(C(F)(F)F)cc1)c1ccccc1 (centres unmarked) [FLX, Fluoxetine] | 96 to 140 h | 0.24 | −0.07 | −0.07 | 0.34 | 191.29 ng/mL | 57.97 ng/mL | 73 ng/mL | 155 ng/mL | 181.19 ng/mL | 62.51 ng/mL | 69.5 ng/mL | 156.25 ng/mL | 0.31 | 17 to 396 ng/mL | 123.66 ± 65.17 ng/mL | 0.18 | high binding affinity | serum levels in fatal overdoses [1]: 1300 to 7000 ng/mL; absorption after oral administration [2]: almost completely absorbed; bioavailability ([2]; oral, reduced by hepatic first-pass metabolism): less than 90%; patients who do not respond to pharmacologic monotherapy [3]: 40–60%; patients with CGI-I 'minimally improved' ([4]; n = 138, FLX 10–40 mg/day): 60 (43.5%); patients with CGI-I 'minimally worse' ([4]; n = 138, FLX 10–40 mg/day): 3 (2.2%); patients with CGI-I 'much worse' ([4]; n = 138, FLX 10–40 mg/day): 2 (1.4%); patients with CGI-I 'no change' ([4]; n = 138, FLX 10–40 mg/day): 8 (5.8%); patients with CGI-I 'very much worse' ([4]; n = 138, FLX 10–40 mg/day): 0 (0%); patients with CGI-I 'minimally improved' ([4]; n = 138, FLX 10–40 mg/day, listed as fluoxetine): 43.5%; patients with marked improvement ([4]; n = 138, much improved plus very much improved): 45.6%; patients with PAERS max. severity 'extremely severe' [5]: 1 (0.7%); patients with PAERS max. severity 'severe' [5]: 2 (1.5%); patients with PAERS max. severity 'none' (no adverse effects) [5]: 87 (64.9%); patients with PAERS max. severity 'none' (no adverse effects) ([5]; listed as fluoxetine): 64.9%; inhibition of CYP2D6 [7]: potent inhibitor
NCCC(Oc1ccc(C(F)(F)F)cc1)c1ccccc1 (centres unmarked) [NORFLX, Norfluoxetine] | 96 to 360 h | 0.21 | −0.05 | −0.05 | 0.26 | 218.24 ng/mL | 85.28 ng/mL | 102.5 ng/mL | 186 ng/mL | 223.57 ng/mL | 78.88 ng/mL | 98.75 ng/mL | 184.25 ng/mL | 0.25 | 21 to 339 ng/mL | 144.74 ± 65.93 ng/mL | 0.19 | high binding affinity | relationship between serum level and therapeutic effect (CGI-I) ([4]; ordinal regressions): no significant relationship
